# From ChEMBL document CHEMBL1201862, “PubChem BioAssay data set” (2004)
#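 Five compound concentrations were applied to cells in 96-well plates for 48 hours; endpoints were derived by simple linear interpolation of the resulting dose-response curve. GI50: concentration for 50% inhibition of growth.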 Activity calls are given as the source filed them. Cut-off read from the data, not from the text of the source: active = GI50 up to about 1.1 µM and inactive = higher.
# Columns and labels:
# Experiment in all cases: NCI anticancer screen, dose series, 48 h
# UACC-62 = system: UACC-62
# RPMI-8226 = system: RPMI-8226
# NCI/ADR-RES = system: NCI/ADR-RES
# CAKI-1 = system: CAKI-1
# T47D = system: T47D
# HCC 2998 = system: HCC 2998
# SNB-75 = system: SNB-75
# DU-145 = system: DU-145
# HOP-62 = system: HOP-62
# K562 = system: K562
# HL-60 = system: HL-60
# OVCAR-4 = system: OVCAR-4
# SF-295 = system: SF-295
# MCF7 = system: MCF7
# M14 = system: M14
# ACHN = system: ACHN
# SK-MEL-2 = system: SK-MEL-2
# SW-620 = system: SW-620
# U-251 = system: U-251
# UO-31 = system: UO-31
# UACC-257 = system: UACC-257
# SN12C = system: SN12C
# SF-268 = system: SF-268
# HCT-116 = system: HCT-116
# NCI-H522 = system: NCI-H522
# 786-0 = system: 786-0
# OVCAR-5 = system: OVCAR-5
# SNB-19 = system: SNB-19
# SK-MEL-5 = system: SK-MEL-5
# Hs-578T = system: Hs-578T
# TK-10 = system: TK-10
# HT-29 = system: HT-29
# BT-549 = system: BT-549
# A549 = system: A549
# SK-OV-3 = system: SK-OV-3
# KM12 = system: KM12
# NCI-H226 = system: NCI-H226
# SK-MEL-28 = system: SK-MEL-28
# COLO 205 = system: COLO 205
# PC-3 = system: PC-3
# A498 = system: A498
# MDA-MB-435 = system: MDA-MB-435
# HOP-92 = system: HOP-92
# MDA-N = system: MDA-N
# OVCAR-3 = system: OVCAR-3
# HCT-15 = system: HCT-15
# EKVX = system: EKVX
# NCI-H23 = system: NCI-H23
# MOLT-4 = system: MOLT-4
# LOX IMVI = system: LOX IMVI
# NCI-H460 = system: NCI-H460
# RXF 393 = system: RXF 393
# Malme-3M = system: Malme-3M
# OVCAR-8 = system: OVCAR-8
# IGROV-1 = system: IGROV-1
# MDA-MB-231 = system: MDA-MB-231
# CCRF-CEM = system: CCRF-CEM
structure (smiles),measurement,setting,value
CN(CCc1ccc(N)cc1)[C@H]1CCCC[C@H]1N1CCCC1,GI50,UACC-62,> 100 µM (inactive)
same,GI50,RPMI-8226,66.7 µM (inactive)
same,GI50,NCI/ADR-RES,> 100 µM (inactive)
same,GI50,CAKI-1,> 100 µM (inactive)
same,GI50,T47D,> 100 µM (inactive)
same,GI50,HCC 2998,51.9 µM (inactive)
same,GI50,SNB-75,> 100 µM (inactive)
same,GI50,DU-145,> 100 µM (inactive)
same,GI50,HOP-62,> 100 µM (inactive)
same,GI50,K562,70.3 µM (inactive)
same,GI50,HL-60,> 100 µM (inactive)
same,GI50,OVCAR-4,> 100 µM (inactive)
same,GI50,SF-295,> 100 µM (inactive)
same,GI50,MCF7,> 100 µM (inactive)
same,GI50,M14,> 100 µM (inactive)
same,GI50,ACHN,> 100 µM (inactive)
same,GI50,SK-MEL-2,> 100 µM (inactive)
same,GI50,SW-620,> 100 µM (inactive)
same,GI50,U-251,> 100 µM (inactive)
same,GI50,UO-31,> 100 µM (inactive)
same,GI50,UACC-257,> 100 µM (inactive)
same,GI50,SN12C,> 100 µM (inactive)
same,GI50,SF-268,> 100 µM (inactive)
same,GI50,HCT-116,> 100 µM (inactive)
same,GI50,NCI-H522,> 100 µM (inactive)
same,GI50,786-0,> 100 µM (inactive)
same,GI50,OVCAR-5,> 100 µM (inactive)
same,GI50,SNB-19,> 100 µM (inactive)
same,GI50,SK-MEL-5,> 100 µM (inactive)
same,GI50,Hs-578T,> 100 µM (inactive)
same,GI50,TK-10,> 100 µM (inactive)
same,GI50,HT-29,78.2 µM (inactive)
same,GI50,BT-549,> 100 µM (inactive)
same,GI50,A549,> 100 µM (inactive)
same,GI50,SK-OV-3,> 100 µM (inactive)
same,GI50,KM12,> 100 µM (inactive)
same,GI50,NCI-H226,> 100 µM (inactive)
same,GI50,SK-MEL-28,> 100 µM (inactive)
same,GI50,COLO 205,> 100 µM (inactive)
same,GI50,PC-3,> 100 µM (inactive)
same,GI50,A498,> 100 µM (inactive)
same,GI50,MDA-MB-435,> 100 µM (inactive)
same,GI50,HOP-92,> 100 µM (inactive)
same,GI50,MDA-N,> 100 µM (inactive)
same,GI50,OVCAR-3,> 100 µM (inactive)
same,GI50,HCT-15,> 100 µM
same,GI50,EKVX,> 100 µM (inactive)
same,GI50,NCI-H23,> 100 µM (inactive)
same,GI50,MOLT-4,98.4 µM (inactive)
same,GI50,LOX IMVI,> 100 µM (inactive)
same,GI50,NCI-H460,> 100 µM (inactive)
same,GI50,RXF 393,> 100 µM (inactive)
same,GI50,Malme-3M,> 100 µM (inactive)
same,GI50,OVCAR-8,> 100 µM (inactive)
same,GI50,IGROV-1,> 100 µM (inactive)
same,GI50,MDA-MB-231,> 100 µM (inactive)
O=S(=O)(c1ccc(Cl)cc1)c1ccccc1C1=NCCN1,GI50,UACC-62,> 100 µM (inactive)
same,GI50,RPMI-8226,> 100 µM (inactive)
same,GI50,NCI/ADR-RES,> 100 µM (inactive)
same,GI50,CAKI-1,> 100 µM (inactive)
same,GI50,T47D,> 100 µM (inactive)
same,GI50,HCC 2998,> 100 µM (inactive)
same,GI50,SNB-75,> 100 µM (inactive)
same,GI50,DU-145,> 100 µM (inactive)
same,GI50,HOP-62,> 100 µM (inactive)
same,GI50,K562,> 100 µM (inactive)
same,GI50,HL-60,> 100 µM (inactive)
same,GI50,OVCAR-4,> 100 µM (inactive)
same,GI50,SF-295,> 100 µM (inactive)
same,GI50,MCF7,> 100 µM (inactive)
same,GI50,M14,> 100 µM (inactive)
same,GI50,ACHN,> 100 µM (inactive)
same,GI50,SK-MEL-2,> 100 µM (inactive)
same,GI50,SW-620,> 100 µM (inactive)
same,GI50,U-251,> 100 µM (inactive)
same,GI50,UO-31,> 100 µM (inactive)
same,GI50,UACC-257,> 100 µM (inactive)
same,GI50,SN12C,> 100 µM (inactive)
same,GI50,SF-268,> 100 µM (inactive)
same,GI50,HCT-116,> 100 µM (inactive)
same,GI50,786-0,> 100 µM (inactive)
same,GI50,OVCAR-5,> 100 µM (inactive)
same,GI50,SNB-19,> 100 µM (inactive)
same,GI50,SK-MEL-5,> 100 µM (inactive)
same,GI50,Hs-578T,> 100 µM (inactive)
same,GI50,TK-10,> 100 µM (inactive)
same,GI50,HT-29,> 100 µM (inactive)
same,GI50,BT-549,> 100 µM (inactive)
same,GI50,A549,> 100 µM (inactive)
same,GI50,SK-OV-3,> 100 µM (inactive)
same,GI50,KM12,> 100 µM (inactive)
same,GI50,NCI-H226,> 100 µM (inactive)
same,GI50,SK-MEL-28,> 100 µM (inactive)
same,GI50,COLO 205,> 100 µM (inactive)
same,GI50,PC-3,> 100 µM (inactive)
same,GI50,MDA-MB-435,> 100 µM (inactive)
same,GI50,MDA-N,> 100 µM (inactive)
same,GI50,OVCAR-3,> 100 µM (inactive)
same,GI50,HCT-15,> 100 µM
same,GI50,EKVX,> 100 µM (inactive)
same,GI50,CCRF-CEM,> 100 µM (inactive)
same,GI50,NCI-H23,> 100 µM (inactive)
same,GI50,MOLT-4,> 100 µM (inactive)
same,GI50,NCI-H460,> 100 µM (inactive)
same,GI50,RXF 393,> 100 µM (inactive)
same,GI50,Malme-3M,> 100 µM (inactive)
same,GI50,OVCAR-8,> 100 µM (inactive)
same,GI50,IGROV-1,> 100 µM (inactive)
same,GI50,MDA-MB-231,> 100 µM (inactive)
